Experimental data from ChEMBL document CHEMBL4321792, “Discovery of 4-Methylquinazoline Based PI3K Inhibitors for the Potential Treatment of Idiopathic Pulmonary Fibrosis” (J Med Chem, 2019).
The source made the active and inactive calls. The calls are words filed in the database; no cut-off is given here.

Legend:
[1] = Half life in ICR mouse at 0.5 mg/kg, iv by LC-MS/SM analysis; format: ADME, organism-based; conditions: in vivo
[2] = system: Mus musculus; test: (§1) Antifibrotic activity in bleomycin-induced C57BL/6 mouse model of pulmonary fibrosis assessed as reduction in lung damage at 1 mg/kg, po administered once daily for 18 days starting from 10 days post-bleomycin challenge and measured post last dose by H and E staining-based histopathological analysis; format: functional, organism-based
[3] = system: Mus musculus; test: Antifibrotic activity in bleomycin-induced C57BL/6 mouse model of pulmonary fibrosis assessed as reduction in respiratory system compliance at 1 mg/kg, po administered once daily for 18 days starting from 10 days post-bleomycin challenge and measured post last dose; format: functional, organism-based
[4] = AUC (0 to infinity) in ICR mouse at 5 mg/kg, po by LC-MS/SM analysis; format: ADME, organism-based; parameters: dose 5 mg/kg, route oral, time infinity; conditions: in vivo
[5] = system: Mus musculus; test: as §1, with “alpha-SMA level” for “damage”, “immunostaining-based” for “H and E staining-based”; format: functional, organism-based
[6] = Volume of distribution at steady state in ICR mouse at 0.5 mg/kg, iv by LC-MS/SM analysis; format: ADME, organism-based; conditions: in vivo, read-out: Vdss
[7] = system: Mus musculus; test: Antifibrotic activity in bleomycin-induced C57BL/6 mouse model of pulmonary fibrosis assessed as reduction in lung fibronectin level at 1 mg/kg, po administered once daily for 18 days starting from 10 days post-bleomycin challenge and measured post last dose by Western blot analysis; format: functional, organism-based
[8] = Apparent permeability across apical to basolateral side in human Caco2 cells measured after 90 mins by LC-MS/MS analysis; conditions: Caco-2
[9] = system: Mus musculus; test: as §1, with “collagen fiber deposition” for “lung damage”, “Masson” for “H and E”; format: functional, organism-based
[10] = species: Mus musculus; test: Inhibition of class 1 PI3K in mouse Mlg2908 cells assessed as reduction in AKT phosphorylation at T308 residue measured after 3 hrs by Western blot analysis; format: cell-based
[11] = target: T1, Phosphatidylinositol 4,5-bisphosphate 3-kinase catalytic subunit gamma isoform (Homo sapiens, UniProt P48736); test: Inhibition of recombinant human N-terminal His-tagged full-length p120gamma expressed in Sf9 insect cells using PIP2 as substrate by ADP-glo assay
[12] = target: PI3K p110 beta/p85 alpha (Homo sapiens, UniProt P42338); test: Inhibition of recombinant human N-terminal FLAG-tagged full-length p110beta/human p85alpha expressed in Sf9 insect cells using PIP2 as substrate by ADP-glo assay
PI3K p110 beta/p85 alpha, sequence (P27986 whole entry): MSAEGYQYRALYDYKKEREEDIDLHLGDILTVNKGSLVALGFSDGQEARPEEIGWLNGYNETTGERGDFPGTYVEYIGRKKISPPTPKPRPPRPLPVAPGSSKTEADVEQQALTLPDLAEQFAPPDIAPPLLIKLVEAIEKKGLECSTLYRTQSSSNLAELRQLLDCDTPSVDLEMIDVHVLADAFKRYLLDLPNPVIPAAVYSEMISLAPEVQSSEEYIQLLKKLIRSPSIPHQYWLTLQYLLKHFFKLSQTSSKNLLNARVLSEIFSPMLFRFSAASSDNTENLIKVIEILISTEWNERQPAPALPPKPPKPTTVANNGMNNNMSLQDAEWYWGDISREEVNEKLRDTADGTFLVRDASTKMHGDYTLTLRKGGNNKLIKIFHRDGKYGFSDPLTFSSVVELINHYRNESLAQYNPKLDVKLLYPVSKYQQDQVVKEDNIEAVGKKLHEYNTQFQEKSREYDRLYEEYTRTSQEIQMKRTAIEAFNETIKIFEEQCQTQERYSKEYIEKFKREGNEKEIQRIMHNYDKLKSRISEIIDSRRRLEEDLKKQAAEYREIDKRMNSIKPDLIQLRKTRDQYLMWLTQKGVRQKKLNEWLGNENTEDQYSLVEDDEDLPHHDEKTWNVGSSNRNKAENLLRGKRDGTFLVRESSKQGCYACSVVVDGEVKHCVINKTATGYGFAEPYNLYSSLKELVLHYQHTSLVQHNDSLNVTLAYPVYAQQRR
PI3K p110 beta/p85 alpha, sequence (P42338 whole entry): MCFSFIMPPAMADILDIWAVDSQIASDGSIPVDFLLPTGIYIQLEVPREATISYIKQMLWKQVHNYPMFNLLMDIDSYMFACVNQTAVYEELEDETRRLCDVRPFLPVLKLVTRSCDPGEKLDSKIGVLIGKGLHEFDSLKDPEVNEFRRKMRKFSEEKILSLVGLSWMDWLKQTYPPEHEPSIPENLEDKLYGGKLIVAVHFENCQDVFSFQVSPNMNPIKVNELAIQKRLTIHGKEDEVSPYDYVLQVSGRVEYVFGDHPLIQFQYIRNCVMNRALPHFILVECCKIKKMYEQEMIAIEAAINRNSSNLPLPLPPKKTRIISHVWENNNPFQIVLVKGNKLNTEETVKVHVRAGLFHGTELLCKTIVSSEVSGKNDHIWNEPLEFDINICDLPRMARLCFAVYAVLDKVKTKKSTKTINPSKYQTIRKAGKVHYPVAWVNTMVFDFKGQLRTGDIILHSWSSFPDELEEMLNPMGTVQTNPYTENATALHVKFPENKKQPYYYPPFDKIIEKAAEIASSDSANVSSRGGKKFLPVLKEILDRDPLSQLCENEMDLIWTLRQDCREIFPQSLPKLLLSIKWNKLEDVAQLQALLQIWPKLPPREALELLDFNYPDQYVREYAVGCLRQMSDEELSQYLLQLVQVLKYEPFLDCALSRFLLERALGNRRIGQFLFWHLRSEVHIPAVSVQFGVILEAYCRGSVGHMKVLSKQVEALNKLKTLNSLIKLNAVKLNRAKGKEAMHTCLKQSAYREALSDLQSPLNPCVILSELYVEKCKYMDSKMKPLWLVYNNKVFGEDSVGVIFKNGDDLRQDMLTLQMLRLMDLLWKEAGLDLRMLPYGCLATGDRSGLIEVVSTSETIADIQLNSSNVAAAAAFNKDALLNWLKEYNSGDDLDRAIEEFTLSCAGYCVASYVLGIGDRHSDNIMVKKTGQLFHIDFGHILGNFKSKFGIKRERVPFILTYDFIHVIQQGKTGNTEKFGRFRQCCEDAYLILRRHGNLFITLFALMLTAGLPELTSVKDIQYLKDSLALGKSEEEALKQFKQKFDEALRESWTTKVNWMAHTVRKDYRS

[13] = target: PI3-kinase p110-alpha/p85-alpha (Homo sapiens, UniProt P42336); test: Inhibition of recombinant human N-terminal FLAG-tagged full-length p110alpha/human p85alpha expressed in Sf9 insect cells using PIP2 as substrate by kinase-glo assay
PI3-kinase p110-alpha/p85-alpha, sequence (P27986 whole entry): as the sequence (P27986 whole entry) above
PI3-kinase p110-alpha/p85-alpha, sequence (P42336 whole entry): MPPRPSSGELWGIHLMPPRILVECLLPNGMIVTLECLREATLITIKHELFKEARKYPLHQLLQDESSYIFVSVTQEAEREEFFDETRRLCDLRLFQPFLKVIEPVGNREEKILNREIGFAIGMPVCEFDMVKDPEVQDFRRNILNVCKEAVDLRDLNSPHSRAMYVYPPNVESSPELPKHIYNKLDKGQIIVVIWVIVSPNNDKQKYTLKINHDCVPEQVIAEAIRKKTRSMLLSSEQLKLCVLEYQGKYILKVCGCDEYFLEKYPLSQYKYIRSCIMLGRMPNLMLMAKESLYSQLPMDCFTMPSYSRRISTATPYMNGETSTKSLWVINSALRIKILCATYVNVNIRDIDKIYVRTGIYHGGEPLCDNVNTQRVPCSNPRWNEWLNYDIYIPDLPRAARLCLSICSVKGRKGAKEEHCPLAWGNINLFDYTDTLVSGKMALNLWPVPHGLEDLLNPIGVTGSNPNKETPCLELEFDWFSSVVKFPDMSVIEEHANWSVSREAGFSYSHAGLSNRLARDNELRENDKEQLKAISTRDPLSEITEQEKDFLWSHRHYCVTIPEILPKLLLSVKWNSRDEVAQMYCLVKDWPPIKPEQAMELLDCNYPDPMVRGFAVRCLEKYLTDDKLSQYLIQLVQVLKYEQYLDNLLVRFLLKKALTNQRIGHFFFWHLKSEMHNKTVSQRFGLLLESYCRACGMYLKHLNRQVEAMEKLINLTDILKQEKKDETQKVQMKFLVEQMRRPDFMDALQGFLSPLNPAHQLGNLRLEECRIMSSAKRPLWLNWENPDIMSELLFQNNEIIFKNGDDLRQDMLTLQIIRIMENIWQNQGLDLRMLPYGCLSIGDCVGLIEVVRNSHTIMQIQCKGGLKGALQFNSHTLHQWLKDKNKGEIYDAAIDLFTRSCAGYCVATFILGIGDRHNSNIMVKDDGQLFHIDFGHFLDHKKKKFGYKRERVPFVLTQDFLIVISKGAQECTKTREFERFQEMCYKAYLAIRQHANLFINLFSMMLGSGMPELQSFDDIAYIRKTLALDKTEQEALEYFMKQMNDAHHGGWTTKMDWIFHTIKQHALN

[14] = Apparent permeability across basolateral to apical side in human Caco2 cells measured after 90 mins by LC-MS/MS analysis; conditions: Caco-2
[15] = target: T1, Phosphatidylinositol 4,5-bisphosphate 3-kinase catalytic subunit gamma isoform; test: Binding affinity to wild-type human partial length PIK3CG (S144 to A1102 residues) expressed in mammalian expression system assessed as residual binding level at 1 uM by kinomescan assay relative to control
Target sequence in this assay (P48736 whole entry, looked up, canonical isoform): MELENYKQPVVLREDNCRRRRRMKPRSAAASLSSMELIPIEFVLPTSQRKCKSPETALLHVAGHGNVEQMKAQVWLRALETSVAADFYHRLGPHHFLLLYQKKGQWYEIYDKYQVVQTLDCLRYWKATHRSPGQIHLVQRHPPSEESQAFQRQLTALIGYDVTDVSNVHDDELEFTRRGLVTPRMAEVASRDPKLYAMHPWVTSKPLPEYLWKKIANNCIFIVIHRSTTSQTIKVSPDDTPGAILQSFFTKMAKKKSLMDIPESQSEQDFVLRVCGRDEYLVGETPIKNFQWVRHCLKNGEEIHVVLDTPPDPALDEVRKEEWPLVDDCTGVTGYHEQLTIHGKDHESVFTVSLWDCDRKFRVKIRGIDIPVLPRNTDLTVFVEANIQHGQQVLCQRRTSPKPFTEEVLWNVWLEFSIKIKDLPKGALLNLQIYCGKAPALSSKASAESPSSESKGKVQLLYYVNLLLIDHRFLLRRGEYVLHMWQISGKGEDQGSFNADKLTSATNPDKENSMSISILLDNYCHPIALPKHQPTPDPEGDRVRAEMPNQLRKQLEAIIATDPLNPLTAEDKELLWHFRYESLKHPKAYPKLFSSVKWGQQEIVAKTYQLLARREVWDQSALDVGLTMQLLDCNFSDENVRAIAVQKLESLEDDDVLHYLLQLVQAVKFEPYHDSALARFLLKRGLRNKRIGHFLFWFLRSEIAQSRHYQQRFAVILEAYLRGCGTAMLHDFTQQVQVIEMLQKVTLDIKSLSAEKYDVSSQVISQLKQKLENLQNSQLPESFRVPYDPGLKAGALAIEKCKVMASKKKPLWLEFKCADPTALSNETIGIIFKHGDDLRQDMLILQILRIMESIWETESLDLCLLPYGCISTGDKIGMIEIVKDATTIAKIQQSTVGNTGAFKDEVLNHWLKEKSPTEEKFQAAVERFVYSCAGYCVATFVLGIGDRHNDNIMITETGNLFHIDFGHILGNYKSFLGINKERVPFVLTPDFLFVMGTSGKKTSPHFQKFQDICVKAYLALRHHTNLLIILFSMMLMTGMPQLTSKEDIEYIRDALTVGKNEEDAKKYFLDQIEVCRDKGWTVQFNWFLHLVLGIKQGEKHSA

[16] = Toxicity in po dosed C57BL/6 mouse administered as single dose via gavage measured up to 7 days; format: organism-based; conditions: in vivo
[17] = system: Mus musculus; test: Antifibrotic activity in bleomycin-induced C57BL/6 mouse model of pulmonary fibrosis assessed as reduction in respiratory system resistance at 1 mg/kg, po administered once daily for 18 days starting from 10 days post-bleomycin challenge and measured post last dose; format: functional, organism-based
[18] = system: Mus musculus; test: Antifibrotic activity in bleomycin-induced C57BL/6 mouse model of pulmonary fibrosis assessed as reduction in lung index at 1 mg/kg, po administered once daily for 18 days starting from 10 days post-bleomycin challenge and measured post last dose; format: functional, organism-based
[19] = Dose normalized AUC in ICR mouse at 5 mg/kg, po by LC-MS/SM analysis; format: ADME, organism-based; conditions: in vivo
[20] = target: PI3-kinase p110-delta/p85-alpha (Homo sapiens, UniProt O00329); test: Inhibition of recombinant human N-terminal GST-tagged full-length p110delta/human p85alpha expressed in Sf9 insect cells using PIP2 as substrate by ADP-glo assay
PI3-kinase p110-delta/p85-alpha, sequence (P27986 whole entry, the tested form may be a part, canonical isoform): as the sequence (P27986 whole entry) above
PI3-kinase p110-delta/p85-alpha, sequence (O00329 whole entry, the tested form may be a part, canonical isoform): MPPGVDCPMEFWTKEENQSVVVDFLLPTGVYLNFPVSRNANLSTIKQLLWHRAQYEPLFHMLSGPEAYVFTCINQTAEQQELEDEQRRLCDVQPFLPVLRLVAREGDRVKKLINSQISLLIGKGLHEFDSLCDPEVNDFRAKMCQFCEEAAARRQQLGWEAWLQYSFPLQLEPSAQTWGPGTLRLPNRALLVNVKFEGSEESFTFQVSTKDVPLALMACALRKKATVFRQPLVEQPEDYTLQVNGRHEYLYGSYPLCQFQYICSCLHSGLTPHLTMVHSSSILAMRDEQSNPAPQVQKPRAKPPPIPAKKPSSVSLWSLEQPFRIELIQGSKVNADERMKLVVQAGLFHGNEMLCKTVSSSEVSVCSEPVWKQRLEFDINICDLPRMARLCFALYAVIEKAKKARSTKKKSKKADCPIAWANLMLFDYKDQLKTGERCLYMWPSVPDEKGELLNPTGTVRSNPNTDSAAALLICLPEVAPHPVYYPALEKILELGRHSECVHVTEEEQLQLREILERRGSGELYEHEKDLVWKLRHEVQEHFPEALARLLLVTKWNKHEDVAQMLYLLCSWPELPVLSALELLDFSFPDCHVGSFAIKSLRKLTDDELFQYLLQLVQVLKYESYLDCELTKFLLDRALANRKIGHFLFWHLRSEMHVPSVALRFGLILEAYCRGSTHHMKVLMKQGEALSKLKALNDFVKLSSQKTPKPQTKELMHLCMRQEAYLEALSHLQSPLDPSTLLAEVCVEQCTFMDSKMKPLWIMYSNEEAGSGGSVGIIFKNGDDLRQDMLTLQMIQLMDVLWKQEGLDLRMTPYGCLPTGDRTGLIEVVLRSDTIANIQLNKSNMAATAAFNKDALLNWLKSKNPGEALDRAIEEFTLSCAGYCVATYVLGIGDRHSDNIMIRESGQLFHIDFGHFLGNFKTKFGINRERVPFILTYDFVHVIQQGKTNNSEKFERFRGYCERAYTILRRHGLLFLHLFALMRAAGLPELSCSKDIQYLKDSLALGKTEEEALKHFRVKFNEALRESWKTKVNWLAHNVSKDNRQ

[21] = target: Phosphatidylinositol 4,5-bisphosphate 3-kinase catalytic subunit alpha isoform (Homo sapiens) (UniProt P42336); test: Binding affinity to wild-type human partial length PIK3CA (R108 to N1068 residues) expressed in mammalian expression system assessed as residual binding level at 1 uM by kinomescan assay relative to control
[22] = system: Mus musculus; test: Antifibrotic activity in bleomycin-induced C57BL/6 mouse model of pulmonary fibrosis assessed as reduction in respiratory system elastance at 1 mg/kg, po administered once daily for 18 days starting from 10 days post-bleomycin challenge and measured post last dose; format: functional, organism-based
[23] = Oral bioavailability in ICR mouse at 5 mg/kg by LC-MS/SM analysis; format: ADME, organism-based; conditions: in vivo
[24] = target: Phosphatidylinositol 4-phosphate 3-kinase C2 domain-containing subunit beta (Homo sapiens) (UniProt O00750); test: Binding affinity to wild-type human partial length PIK3C2B (M1 to L1634 residues) expressed in mammalian expression system assessed as residual binding level at 1 uM by kinomescan assay relative to control
[25] = species: Mus musculus; test: Inhibition of class 1 PI3K in mouse Mlg2908 cells assessed as reduction in p70S6K phosphorylation measured after 3 hrs by Western blot analysis; format: cell-based
[26] = Half life in ICR mouse at 5 mg/kg, po by LC-MS/SM analysis; format: ADME, organism-based; conditions: in vivo
[27] = Cmax in ICR mouse at 5 mg/kg, po by LC-MS/SM analysis; format: ADME, organism-based; parameters: dose 5 mg/kg, route oral; conditions: in vivo
[28] = system: Mus musculus; test: Antifibrotic activity in bleomycin-induced C57BL/6 mouse model of pulmonary fibrosis assessed as reduction in inspiratory capacity at 1 mg/kg, po administered once daily for 18 days starting from 10 days post-bleomycin challenge and measured post last dose; format: functional, organism-based
[29] = species: Mus musculus; test: Inhibition of class 1 PI3K in mouse Mlg2908 cells assessed as reduction in AKT phosphorylation at S473 residue measured after 3 hrs by Western blot analysis; format: cell-based
[30] = species: Mus musculus; test: Inhibition of class 1 PI3K in mouse Mlg2908 cells assessed as reduction in S6RP phosphorylation measured after 3 hrs by Western blot analysis; format: cell-based
[31] = Antifibrotic activity against mouse Mlg2908 cells assessed as reduction in cell viability measured after 72 hrs by MTT assay; format: functional, cell-based
[32] = AUC (0 to infinity) in ICR mouse at 0.5 mg/kg, iv by LC-MS/SM analysis; format: ADME, organism-based; parameters: dose 0.5 mg/kg, time infinity, route intravenous; conditions: in vivo
[33] = Toxicity in po dosed C57BL/6 mouse administered once daily via gavage for 7 days measured post-last dose; format: organism-based; conditions: in vivo
[34] = Therapeutic index, ratio of MTD in po dosed C57BL/6 mouse to compound effect for antifibrotic activity in bleomycin-induced C57BL/6 mouse model of pulmonary fibrosis; format: toxicity, organism-based; conditions: in vivo, read-out: TI
[35] = Clearance in ICR mouse at 0.5 mg/kg, iv by LC-MS/SM analysis; format: ADME, organism-based; conditions: in vivo
[36] = system: Mus musculus; test: Antifibrotic activity in bleomycin-induced C57BL/6 mouse model of pulmonary fibrosis assessed as reduction in lung hydroxyproline level at 1 mg/kg, po administered once daily for 18 days starting from 10 days post-bleomycin challenge and measured post last dose; format: functional, organism-based

COc1ncc(-c2cc(OCC3(C)COC3)c3ncnc(C)c3c2)cc1NS(=O)(=O)c1ccc(F)cc1F
half-life [1]: 0.66 h | Activity [2]: Active | Activity [3]: Active | AUC(0-inf) [4]: 3670 ng·h/mL | Activity [5]: Active | Vd [6]: 0.733 L/kg | Activity [7]: Active | Papp A→B at 1.5 h [8]: 46 ×10⁻⁶ cm/s | Activity [9]: Active | inhibition [10]: Dose-dependent effect | IC50 [11]: 1.6 nM | IC50 [12]: 0.7 nM | IC50 [13]: 0.87 nM | Papp B→A at 1.5 h [14]: 36 ×10⁻⁶ cm/s | Activity [15]: 0% | MTD at 168 h [16]: > 30 mg/kg | Activity [17]: Active | Activity [18]: Active | AUC/dose [19]: 734 ng·h/mL per mg/kg | IC50 [20]: 1.1 nM | Activity [21]: 0% | Activity [22]: Active | bioavailability [23]: 53.1% | Activity [24]: 0% | inhibition [25]: Dose-dependent effect | half-life [26]: 4.98 h | Cmax [27]: 1220 ng/mL | Activity [28]: Active | inhibition [29]: Dose-dependent effect | inhibition [30]: Dose-dependent effect | IC50 [31]: 5 nM | AUC(0-inf) [32]: 651 ng·h/mL | MTD at 168 h [33]: > 10 mg/kg | selectivity ratio [34]: > 10 | clearance [35]: 12.8 mL/min/kg | Activity [36]: Active
